“Also recorded” adds a separate entry of the source. Like-named read-outs stand apart in the source and are kept apart here.
Tests used:
[1] = system: ZIKV mosquito strain MEX 2-81 (2016/Mexico); experiment: Plaque reduction inhibition assay in Vero E6 cells, ZIKV MEX 2-81; type: cell-based, Zika virus (ZIKV)
From the text: Vero E6 and LLC-MK2 cells were maintained in Dulbecco's Modified Eagle Medium (DMEM) supplemented with 8% fetal bovine serum (FBS) and penicillin and streptomycin (P/S). C6/36 cells were maintained in Eagle's Minimal Essential Medium (EMEM) supplemented with 5% FBS and P/S. ZIKV strains, including human strains PAN2016 (2016/Panama), R116265 (2016/Mexico), PAN2015 (2015/Panama), FLR (2015/Colombia), R103451 (2015/Honduras), PRVABC59 (2015/Puerto Rico), PLCal_ZV (2013/Thailand), and IbH 30656 (1968/Nigeria), mosquito strain MEX 2-81 (2016/Mexico), and rhesus macaque strain MR 766 (1947/Uganda), were used in the studies. These ZIKV strains were cultured in Vero E6 cells, and viral titers were detected by a standard plaque-forming assay. DENV human strains, including type 1: DENV-1-V1792 (2007/Vietnam), type 2: DENV-2-V594 (2006/Puerto Rico), type 3: DENV-3-V1043 (2006/Puerto Rico), and type 4: DENV-4-PR 06-65-740 (2006/Puerto Rico), were cultured in C6/36 cells, and the viral titers were determined by plaque-forming assay as described above.
A plaque reduction inhibition assay was carried out to measure the inhibitory activity of Z-medicaments against infections of ZIKV and DENV. […] The compound-virus mixtures were then transferred to Vero E6 cells (10^5/well) and incubated at 37° C. for 1 h. […] The cells were washed thoroughly with PBS, and overlaid with DMEM containing 1% carboxymethyl cellulose and 2% FBS, followed by in vitro culture at 37° C. for 4-5 days and then staining with 0.5% crystal violet.
After removal of the unbound compounds by centrifugation after addition of 3% PEG-6000, ZIKV was incubated with Vero E6 cells at 37° C. for 1 h. The cells were then washed with PBS, overlaid with DMEM containing 1% carboxymethyl cellulose and 2% FBS, and cultured at 37° C. for 4-5 days, followed by staining with 0.5% crystal violet.

[2] = system: ZIKV human strain IbH 30656 (1968/Nigeria); experiment: Plaque reduction inhibition assay in Vero E6 cells, ZIKV IbH 30656; type: cell-based, Zika virus (ZIKV)
Protocol: A plaque reduction inhibition assay was carried out to measure the inhibitory activity of Z-medicaments against infections of ZIKV and DENV. […] The compound-virus mixtures were then transferred to Vero E6 cells (10^5/well) and incubated at 37° C. for 1 h.

[3] = biological target: T1, binding between ZIKV EDIII and EDIII-specific mAb SMZAb5 (Zika virus, UniProt Q32ZE1, D679E/I627V/V603I/V629A); settings: ELISA; EDIII 1.5 μg/ml, mAb 0.5 μg/ml; read-out: IC50, blocking EDIII-mAb binding, SMZAb5
T1 construct: human Fc (C)
T1 sequence (Q32ZE1 584-695 V603I/I627V/V629A/D679E): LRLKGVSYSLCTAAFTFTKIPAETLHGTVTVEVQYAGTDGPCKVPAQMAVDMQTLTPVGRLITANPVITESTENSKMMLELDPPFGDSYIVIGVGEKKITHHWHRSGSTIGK
Protocol: (§1) Binding of compounds (NPs) to ZIKV full-length E (FIG. 3A), EDIII (FIG. 3B), and NS2B-NS3 (FIG. 3C) proteins, was detected by ELISA. The percent binding was reported in the presence or absence of serially diluted NPs using the formula (1-[E/EDIII-NP]/[E/EDIII])×100 (for E/EDIII binding) or (1-[NS2B-NS3-NP]/[NS2B-NS3])×100 (for NSEB-NS3 binding). […] The concentrations of ZIKV EDIII and mAbs were 1.5 and 0.5 μg/ml, respectively. […] The concentrations of substrate (Bz-Nle-Lys-Lys-Arg-AMC) and ZIKV NS2B-NS3 protein were 4 μM and 1 μg/ml, respectively. The percent inhibition of protease activity was calculated in the presence or absence of serially diluted compounds using the formula (1-[NS2B-NS3-substrate-NP]/[NS2B-NS3-substrate])×100. The IC50 values were calculated based on the percent inhibition. The data are expressed as mean±s.e.m. (n=4).
(§2) ELISA was also used to determine the ability of ST087010 in inhibition of the binding between ZIKV EDIII and EDIII-specific human mAbs (SMZAb5, ZKA64-LALA, ZV-67, or Z004) or EDI/II-specific human mAb (ZKA78) control.

[4] = biological target: T2, binding between ZIKV EDIII and EDIII-specific mAb ZKA64-LALA (Zika virus, UniProt Q32ZE1, D679E/I627V/V603I/V629A); settings: ELISA; EDIII 1.5 μg/ml, mAb 0.5 μg/ml; read-out: IC50, blocking EDIII-mAb binding, ZKA64-LALA
T2 construct: human Fc (C)
T2 sequence (Q32ZE1 584-695 V603I/I627V/V629A/D679E): as above
Protocol: as §1, §2

[5] = biological target: T3, binding between ZIKV EDIII and EDIII-specific mAb ZV-67 (Zika virus, UniProt Q32ZE1, D679E/I627V/V603I/V629A); settings: ELISA; EDIII 1.5 μg/ml, mAb 0.5 μg/ml; read-out: IC50, blocking EDIII-mAb binding, ZV-67
T3 construct: human Fc (C)
T3 sequence (Q32ZE1 584-695 V603I/I627V/V629A/D679E): as above
Protocol: as §1, §2

[6] = Safety of ST087010 in pregnant Ifnar1-/- mice and their pups; type: in vivo
Protocol: FIG. 10A depicts weight changes of pregnant mothers at prenatal and postnatal time points and FIG. 10B depicts weight changes of pups at different postnatal time points. Alanine aminotransferase (ALT) (FIG. 10C) and creatinine (FIG. 10D) levels in sera of pregnant mice were measured by ALT assay and Creatinine assay, respectively, before and 4 h, 1, 3 and 5 days post-last injection of ST087010 or DMSO control. Haematoxylin and eosin (H&E) staining of tissues (FIG. 10E), including liver, spleen, kidney, and brain, from ST087010 or DMSO-treated mothers and their pups. Scale bar, 50 μm.
ST087010 was detected for its safety profiles in pregnant Ifnar1^−/− mice and their fetuses. Briefly, groups of 5 pregnant mice (8-12-week-old, E12-14) were i.p. injected with ST087010 (20 or 40 mg/kg of body weight), or DMSO (control), daily for 4 continual days. […] Sera collected before and 4 h, 1, 3 and 5 days after last injection were measured for ALT and creatinine levels using ALT and Creatinine Assay kits. Two mothers and their pups (at 3-week-old) were sacrificed, and their liver, spleen, kidney, and brain tissues were sectioned, and assessed for histopathological changes by H&E staining.

Cc1cc2c(C(C)C)c(O)c(O)c(C=O)c2c(O)c1-c1c(C)cc2c(C(C)C)c(O)c(O)c(C=O)c2c1O [Gossypol, gossypol]
IC50 ([1]; Zika virus, Vero C1008, read-out: IC50 against ZIKV strain MEX 2-81): 2.79 ± 0.01 µM | IC50 ([1]; Zika virus, Vero C1008, read-out: ZIKV strains IC50, MEX 2-81): 2.93 ± 0.01 µM

C[C@@H]1CC[C@@]2(OC1)O[C@H]1[C@@H](O)[C@H]3[C@@H]4CC[C@H]5C[C@@H](O[C@@H]6O[C@H](CO)[C@H](O[C@@H]7O[C@H](CO)[C@@H](O)[C@H](O[C@@H]8OC[C@@H](O)[C@H](O)[C@H]8O)[C@H]7O[C@@H]7O[C@H](CO)[C@H](O)[C@H](O[C@@H]8O[C@H](CO)[C@@H](O)[C@H](O)[C@H]8O)[C@H]7O)[C@H](O)[C@H]6O)[C@H](O)C[C@]5(C)[C@H]4CC[C@]3(C)[C@H]1[C@@H]2C [Digitonin, digitonin]
IC50 ([2]; Zika virus, Vero C1008, Table 1, read-out: IC50 against ZIKV strain IbH 30656): 5.3 ± 0.13 µM

Cc1cc2c(C(C)C)c(O)c(O)c(/C=N/n3c(=O)[nH][nH]c3=O)c2c(O)c1-c1c(C)cc2c(C(C)C)c(O)c(O)c(/C=N/n3c(=O)[nH][nH]c3=O)c2c1O [ST087010]
IC50 ([2]; Table 7, gossypol derivatives, read-out: ZIKV strains IC50, IbH 30656): 2.94 ± 0.08 µM | IC50 [3]: 5.72 µM | IC50 [4]: 4.17 µM | IC50 [5]: 6.7 µM | IC50 ([1]; Vero E6 cells, Table 7, gossypol derivatives, read-out: ZIKV strains IC50, MEX 2-81): 2.92 ± 0.25 µM | Serum ALT and creatinine levels vs DMSO-treated mice, low dose ([6]; 20 mg/kg): no significant difference | Serum ALT and creatinine levels vs DMSO-treated mice, high dose ([6]; 40 mg/kg, 1 day after injection, elevations transient): significantly different | Histopathology of liver, spleen, kidney and brain, mothers and pups ([6]; 20 or 40 mg/kg, vs DMSO): no abnormal pathological changes; also recorded: no inflammation or cell infiltration | ALT and creatinine levels in sera, before vs after injection ([6]; 20 or 40 mg/kg, before injection and 4 h, 3 or 5 days after last injection): no significant differences
